Laboratory results as given in patent US20060025485A1, “Hydroxybenazamide compounds for treatment of cancer” (priority 2004, published 2006).
Entries after “also recorded” stand apart in the source; their conditions may differ.

Columns and labels:
Chromogranin A = test: Western analysis of CgA, H727 cells; type: cell-based, human
Procedure: (§1) ZM 336372 treatment. H727 and BON cells were plated at 50-60% confluence in 100 mm cell culture dishes and incubated overnight.
(§2) Western blot analysis. Cellular extracts were prepared and quantified by BCA protein assay kit (Pierce, Rockford, Ill.) as previously described (Sippel et al., 2003). 30-50 μg of denatured proteins from each sample underwent electrophoresis on a SDS-polyacrylamide gel and transferred to a nitrocellulose membranes (Schleicher and Schuell, Keene, N.H.). Membranes were blocked for 1 hr in milk solution (1×PBS, 5% non-fat dry milk, 0.05% Tween-20) and then incubated at 4° C. overnight with primary antibodies. The following primary antibody dilutions were used: phospho-ERK 1/2 (1:1,000); phospho-MEK (1:1,000); phospho-Raf-1 (Serine338) (1:1,000); p21 and p18, (1:1,000); (Cell Signal Technology, Beverly, Mass.), Chromogranin A (1:2,000; Zymed Laboratories, San Francisco, Calif.); MASH-1 (1:1000, BD Pharmingen) and G3PDH (1:10,000; Trevigen, Gaithersburg, Md.). After primary antibody incubation, membranes were washed 3×5 min in PBS-T wash buffer (1×PBS, 0.05% Tween 20). Then the membranes were incubated with either 1:2,000 dilution of goat anti-rabbit or goat anti-mouse secondary antibody (Cell Signal Technology, Beverly, Mass.) depending on the source of the primary antibody for 1 hr at room temperature. Membranes were washed 3×5 min in PBS-T wash buffer and developed by Immunstar™ HRP (Bio-Rad Laboratories, Hercules, Calif.) according to the manufacturer's directions. For the detection of hASH1 protein, membranes were developed with SuperSignal West Femto chemiluminescence reagent (Pierce).

Panc-1 = Panc-1 MTT Assay; type: cell-based; set-up: dose or concentration left out as unconfirmed; conditions: Panc-1, three concentrations
[1] = test system: TT medullary thyroid cancer cells; test: MTT assay, TT cells; type: cell-based; conditions: 100 μM, versus DMSO
Panc-1 cells = test: cell morphology after 9-day treatment, Panc-1 cells; type: cell-based; conditions: Panc-1, 100 μM, 9-day cycle
Description: (§3) The results were assay using standard MTT, Western blot and cytoxocity assays.

Raf-1/MEK/ERK = test: Western analysis of Raf-1 pathway activation, BON cells; type: cell-based, human; conditions: 2 days
Procedure: H727 and BON cells were plated at 50-60% confluence in 100 mm cell culture dishes and incubated overnight.
as §2

p18 = test: Western analysis of cell cycle inhibitor p18, H727 cells; type: cell-based, human; conditions: 20 μM and 100 μM, 2 days
Procedure: as §1
as §2, with “Membranes were washed 3×5 min in PBS-T wash buffer and developed by Immunstar™ HRP (Bio-Rad Laboratories, Hercules, Calif.) according to the manufacturer's directions. For the detection of hASH1 protein, membranes were developed with SuperSignal West Femto chemiluminescence reagent (Pierce).” left out

MiaPaCa-2 [2] = test: cell morphology after 9-day treatment, MiaPaCa-2 cells; type: cell-based
Description: as §3

[3] = test system: HepG2 cells, a hepatocellular cancer cell line; test: cell morphology after 9-day treatment, HepG2 cells; type: cell-based
Description: as §3

MiaPaCa-2 [4] = test: MiaPaCa-2 MTT Assay; type: cell-based; conditions: MiaPaCa-2, three concentrations
hASH1 = test: Western analysis of hASH1, H727 cells; type: cell-based, human
Procedure: as §1
as §2, with “Membranes were washed 3×5 min in PBS-T wash buffer and developed by Immunstar™ HRP (Bio-Rad Laboratories, Hercules, Calif.) according to the manufacturer's directions. For the detection of hASH1 protein, membranes were developed with SuperSignal West Femto chemiluminescence reagent (Pierce).” left out

HT-29 = HT-29 MTT Assay; type: cell-based; conditions: HT-29, varying concentrations
[5] = test system: BON pancreatic carcinoid cells; test: cell culture pictures of BON cells; type: cell-based, human; conditions: 100 μM, 4 days, versus DMSO alone
Procedure: Cell culture. Human pulmonary carcinoid cells (NCI-H727) were obtained from American Type Culture Collection (Manassas, Va.) and human pancreatic carcinoid tumor cells, BON a generous gift of Drs. Evers and Townsend (Parekh et al., 1994), were maintained in RPMI 1640 and D-MEM-F12 media (Life Technologies, Rockville, Md.) respectively supplemented with 10% Fetal Bovine Serum (Sigma, St. Louis, Mo.), 100 IU/ml penicillin and 100 μg/ml streptomycin (Life Technologies) in a humidified atmosphere of 5% CO2 in air at 37° C. The maintenance of BON-raf cells and the activation of Raf-1 were followed as described previously (Sippel et al., 2003; Sippel and Chen, 2002; McMahon, 2001).
as §1

Cc1ccc(NC(=O)c2cccc(N(C)C)c2)cc1NC(=O)c1ccc(O)cc1 [ZM336372, N-[5-(dimethyl-aminobensamido)-2-methylphenyl]-4-hydroxybenzamide]
CgA level (Chromogranin A; 20 μM and 100 μM, 2 days): reduction in both CgA and hASH1; also recorded: dose dependent decrease | time of earliest detected reduction of CgA (Chromogranin A; 100 μM, 10 minutes to 48 hours): 1 h | time of greatest comparative loss of CgA (Chromogranin A; 100 μM, 10 minutes to 48 hours): 48 h | CgA level over days (Chromogranin A; 100 μM, days 2, 4 and 6): decrease in chromogranin; also recorded: CgA depletion was maintained to 6 days; also recorded: persistent reduction of CgA to day 6 | cellular proliferation (MTT) (Panc-1): inhibition at the highest concentration; also recorded: clear decrease | IC50 (cytotoxicity) (BON cells): did not produce enough cellular cytotoxicity to estimate an IC50 | growth of TT cells (MTT) [1]: clear suppression of growth | cell death (Panc-1 cells): significant cell death | phosphorylated Raf-1 at serine 338 (pRaf-1) (Raf-1/MEK/ERK; 20 μM and 100 μM): dose dependent increases | phosphorylated ERK 1/2 (pERK, pMAPK) (Raf-1/MEK/ERK; 20 to 100 μM): increased phosphorylation of both MEK and MAPK; also recorded: strong activation of ERK 1/2 and MEK 1/2; also recorded: increasing phosphorylated MEK and MAP kinase; also recorded: dose dependent increases | phosphorylated MEK 1/2 (pMEK) (Raf-1/MEK/ERK; 20 to 100 μM): increased phosphorylation of both MEK and MAPK; also recorded: strong activation of ERK 1/2 and MEK 1/2; also recorded: increasing phosphorylated MEK and MAP kinase; also recorded: dose dependent increases | p18 expression (p18): induced; also recorded: significant induction | IC50 (cytotoxicity) (H727 cells): did not produce enough cellular cytotoxicity to estimate an IC50 | cell death (MiaPaCa-2 [2]; MiaPaCa-2, 100 μM, 9-day cycle): significant cell death | cell numbers in culture (MiaPaCa-2 [2]; MiaPaCa-2, 100 microM, day 9): dramatic decrease in cell numbers | cell death ([3]; HepG2, 100 μM, 9-day cycle): significant cell death | cell growth in culture ([3]; HepG2, 50 microM, day 9, versus DMSO control): clear difference in cell growth | cytopathology ([3]; HepG2, low concentrations, 9-day cycle): cytopathology at low concentrations | cellular proliferation (MTT) (MiaPaCa-2 [4]): inhibition at the highest concentration; also recorded: reduction of cellular proliferation | hASH1 level (hASH1; 20 μM and 100 μM, 2 days): reduction in both CgA and hASH1; also recorded: dose dependent decrease | time of first recognized reduction of hASH1 (hASH1; 100 μM, 10 minutes to 48 hours): 1 h | cellular proliferation (MTT) (HT-29): effects at low concentrations; also recorded: effective at decreasing cellular proliferation | growth of BON cells in culture [5]: dramatic growth arrest; also recorded: clear difference in growth
